Experiment [1] addresses T1, PI3K-α (PIK3CA) wild-type (WT), p110α/p85α complex (Homo sapiens, UniProt P42336).
T1 construct: Recombinant, catalytically active human full length PIK3KA Wild-type and H1047R mutant; 6×His (N); purchased EMD Millipore Sigma 14-602M
Put plainly: PI3K-alpha kinase (PIK3CA) biochemical activity, ADP-Glo, wild-type. As to conditions: Soy PI lipid substrate. In short, it runs like this: (§1)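 ADP formation measured by ADP-Glo luminescence after reaction at 27 °C to about 10% ATP turnover, using 20 uM ATP, 50 uM PIP2diC8 or soy PI lipid, HEPES pH 7.4 with MgCl2. Enzyme (1-5 nM WT or H1047R p110α/p85α) and compound preincubated 1 h first; 10-point 1:3 curves fitted four-parameter for IC50.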
(ADP-Glo first removes unused ATP, then detects ADP through luciferase.)

Experiment [2] concerns the target T2, PI3K-α (PIK3CA) H1047R mutant, p110α/p85α complex (Homo sapiens, UniProt P42336, H1047R).
T2 construct: Recombinant, catalytically active human full length PIK3KA Wild-type and H1047R mutant; 6×His (N); purchased EMD Millipore Sigma 14-792M
Put plainly: PI3K-alpha kinase (PIK3CA) biochemical activity, ADP-Glo, H1047R mutant. As to conditions: Soy PI lipid substrate. In outline: as §1

In experiment [3] the target is PI3K-α (PIK3CA) in MDA-MB-453 cells (Homo sapiens, UniProt P42336). Put plainly: PI3K-alpha kinase (PIK3CA) in vitro cell based assay, MDA-MB-453 cells, SureFire Ultra AlphaLisa. As to conditions: read-out: PI3K-α (PIK3CA) in vitro cell based assay IC50. As for the experimental part:
PI3K-Alpha Kinase (PIK3CA) Activity In Vitro Cell Based Assay and Determining IC50 Values for Inhibitors
The MDA-MB-453 (ATCC-HTB-131) cell line was obtained from the American Type Culture Collection (Manassas, VA). Cells were maintained in Dulbecco's Modified Eagle Media (DMEM, Gibco 11965-092) supplemented with 10% Fetal Bovine Serum, heat inactivated (FBS HI, Gibco 10082-147), 1× non-essential amino acids (NEAA, Gibco 11140-050), and 1 mM sodium pyruvate (Gibco 11360-070). Cultures were maintained in a humidified incubator at 37° C. under 5% CO2/95% air.
For compound testing in 0% FBS, MDA-MB-453 cells were seeded at a density of 1.5×10^4 cells per well in white 384-well plates in 20 μl of Minimum Essential Media (MEM) assay media with 1×NEAA, 1 mM sodium pyruvate, and 1 μg/mL human insulin (Sigma I9278). Compounds dissolved in 10 mM stock solutions in DMSO were serially diluted 1:3 in DMSO to generate a 10-point dilution series and plated using an acoustic liquid handler system (Echo 550 Series Liquid Handler, Labcyte). A 5× intermediate compound dilution plate in MEM with 1×NEAA and 1 mM sodium pyruvate (150 μM starting compound concentration in 1.5% DMSO) was then prepared. Five μl of the intermediate serially diluted compounds were added to the cell plate to final concentrations ranging from […] in 0.3% DMSO. 0.3% DMSO alone was used to establish the maximum (MAX) signal and GDC-0032 at a final concentration of 1 μM was used as a reference compound for the minimum (MIN) signal. After 3 hours treatment, the medium was removed, and the cells lysed in 10 μL of 1× SureFire Lysis buffer with shaking for 10 minutes at room temperature. The Acceptor Mix (Reaction Buffer 1+Reaction Buffer 2+Activation Buffer+SureFire Ultra Acceptor Beads) was prepared by diluting Activation buffer 25-fold in combined Reaction Buffer 1 and Reaction Buffer 2. The Acceptor beads were diluted 50-fold in the combined Reaction Buffers. Five μL of Acceptor Mix was added to each well, the plate was sealed and covered with foil and incubated for 1 hour at room temperature. The Donor Mix (dilution buffer+SureFire Ultra Donor Beads) was prepared by diluting Donor Beads 50-fold in dilution buffer. Five μL of the Donor Mix was added to each well and the plate sealed and covered with foil and incubated for 1 hour at room temperature in the dark. The plates were read on a Neo2 plate reader instrument from Biotek using standard AlphaLisa settings. Compounds were tested in duplicate and the average % inhibition at each compound concentration was used to generate a single dose response curve. The data were processed using the Genedata-Screener tool. Relative IC50 values were determined using luminescence units by calculating percent inhibition with respect to the in-plate “MIN” (GDC-0032 reference control) and “MAX” (DMSO) controls. The data was analyzed using a 4-parameter nonlinear logistic equation (four-parameter logistic concentration-response curve): Y=bottom+[(top−bottom)/1+(X/IC50)slope] where Y=% inhibition, X=concentration of inhibitor, bottom=minimum value of y attained by curve-fit, top=maximum value of y attained by curve-fit and slope=steepness of curve at the IC50. % Inhibition=[(signal at X−median Min)/(median Max−median Min)]×100 IC50: concentration of compound that reduces a given response (ligand binding, enzyme response) by 50%. Relative IC50: concentration giving half the compound's maximum response.
A general note: Bead proximity is the source of the signal in Alpha formats.

These results are taken from US11878970B2, “Allosteric chromenone inhibitors of phosphoinositide 3-kinase (PI3K) for the treatment of disease” (Petra Pharma Corporation, priority 2021, dated 2024).

T2 sequence (P42336 whole entry H1047R): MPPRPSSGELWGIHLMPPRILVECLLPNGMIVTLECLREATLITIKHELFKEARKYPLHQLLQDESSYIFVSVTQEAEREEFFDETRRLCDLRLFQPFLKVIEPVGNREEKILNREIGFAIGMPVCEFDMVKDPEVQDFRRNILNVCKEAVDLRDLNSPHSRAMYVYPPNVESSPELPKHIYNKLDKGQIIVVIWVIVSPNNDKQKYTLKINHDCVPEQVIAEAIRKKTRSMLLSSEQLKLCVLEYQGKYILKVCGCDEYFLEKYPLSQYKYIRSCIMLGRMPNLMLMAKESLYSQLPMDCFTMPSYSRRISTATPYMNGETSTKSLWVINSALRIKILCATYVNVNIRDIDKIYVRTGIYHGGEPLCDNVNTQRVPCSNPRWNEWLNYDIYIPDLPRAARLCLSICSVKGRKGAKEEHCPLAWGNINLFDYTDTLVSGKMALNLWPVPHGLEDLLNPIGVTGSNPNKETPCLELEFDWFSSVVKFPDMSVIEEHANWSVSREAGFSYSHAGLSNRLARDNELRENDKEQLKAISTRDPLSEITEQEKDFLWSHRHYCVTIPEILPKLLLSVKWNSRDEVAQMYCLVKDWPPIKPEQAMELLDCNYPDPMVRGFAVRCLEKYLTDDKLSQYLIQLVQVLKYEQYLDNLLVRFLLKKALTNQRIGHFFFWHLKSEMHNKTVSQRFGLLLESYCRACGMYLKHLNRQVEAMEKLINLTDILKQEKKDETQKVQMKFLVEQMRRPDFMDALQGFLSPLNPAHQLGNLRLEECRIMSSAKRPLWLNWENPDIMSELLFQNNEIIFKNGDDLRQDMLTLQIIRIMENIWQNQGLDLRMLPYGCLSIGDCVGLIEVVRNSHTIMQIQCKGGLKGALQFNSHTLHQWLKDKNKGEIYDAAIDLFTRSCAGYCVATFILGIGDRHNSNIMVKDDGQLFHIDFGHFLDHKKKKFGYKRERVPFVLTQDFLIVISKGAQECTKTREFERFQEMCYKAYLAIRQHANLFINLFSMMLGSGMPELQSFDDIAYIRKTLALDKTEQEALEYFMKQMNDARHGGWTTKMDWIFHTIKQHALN
T2 sequence (P27986 whole entry partner): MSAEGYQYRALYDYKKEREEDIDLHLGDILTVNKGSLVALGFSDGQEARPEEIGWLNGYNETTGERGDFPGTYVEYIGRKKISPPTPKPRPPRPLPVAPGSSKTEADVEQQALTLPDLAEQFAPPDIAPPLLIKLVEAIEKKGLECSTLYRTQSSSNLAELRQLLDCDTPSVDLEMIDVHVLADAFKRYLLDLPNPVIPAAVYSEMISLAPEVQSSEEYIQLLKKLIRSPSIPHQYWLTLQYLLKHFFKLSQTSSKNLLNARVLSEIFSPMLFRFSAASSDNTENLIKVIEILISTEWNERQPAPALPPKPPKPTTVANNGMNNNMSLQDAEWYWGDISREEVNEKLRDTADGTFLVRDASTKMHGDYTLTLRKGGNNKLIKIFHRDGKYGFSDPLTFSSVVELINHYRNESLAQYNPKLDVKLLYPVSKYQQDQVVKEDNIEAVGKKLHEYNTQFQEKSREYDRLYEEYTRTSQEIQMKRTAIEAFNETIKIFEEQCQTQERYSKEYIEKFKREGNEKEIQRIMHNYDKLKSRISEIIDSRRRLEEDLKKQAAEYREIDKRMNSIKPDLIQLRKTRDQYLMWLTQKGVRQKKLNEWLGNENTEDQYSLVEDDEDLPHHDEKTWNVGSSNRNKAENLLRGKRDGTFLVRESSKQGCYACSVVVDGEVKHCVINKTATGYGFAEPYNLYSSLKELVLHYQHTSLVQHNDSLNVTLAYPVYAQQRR
Sequence of PI3K-α (PIK3CA) in MDA-MB-453 cells (P27986 2-724): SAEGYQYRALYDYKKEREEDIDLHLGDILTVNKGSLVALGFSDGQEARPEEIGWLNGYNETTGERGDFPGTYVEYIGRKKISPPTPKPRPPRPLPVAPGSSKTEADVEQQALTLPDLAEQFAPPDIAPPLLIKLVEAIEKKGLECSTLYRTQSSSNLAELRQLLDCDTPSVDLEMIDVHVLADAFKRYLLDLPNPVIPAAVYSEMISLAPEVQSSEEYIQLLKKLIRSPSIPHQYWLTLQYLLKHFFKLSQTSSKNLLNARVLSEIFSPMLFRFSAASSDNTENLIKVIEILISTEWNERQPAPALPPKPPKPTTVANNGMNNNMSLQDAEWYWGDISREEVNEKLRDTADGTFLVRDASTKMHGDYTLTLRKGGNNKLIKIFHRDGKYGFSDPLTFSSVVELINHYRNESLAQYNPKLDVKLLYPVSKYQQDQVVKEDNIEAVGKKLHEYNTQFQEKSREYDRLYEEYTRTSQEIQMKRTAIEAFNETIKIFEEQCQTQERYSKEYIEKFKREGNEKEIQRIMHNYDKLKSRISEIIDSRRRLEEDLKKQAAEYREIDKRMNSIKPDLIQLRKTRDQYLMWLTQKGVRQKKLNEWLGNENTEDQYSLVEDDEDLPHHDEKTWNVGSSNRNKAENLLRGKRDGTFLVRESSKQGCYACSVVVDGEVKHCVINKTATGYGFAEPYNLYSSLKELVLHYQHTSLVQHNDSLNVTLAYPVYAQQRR
Sequence of PI3K-α (PIK3CA) in MDA-MB-453 cells (P42336 whole entry): as the sequence (P42336 whole entry H1047R) above, with R1047H counted along it

Usually IC50 stands for the point on the concentration scale where inhibition reaches its midpoint. For `Cc1cc([C@@H](C)Nc2ccccc2C(=O)O)c2oc(-c3ccc4nc(C)oc4c3)c(C)c(=O)c2c1` [Example 261, 2-[[(1R)-1-[3,6-Dimethyl-2-(2-methyl-1,3-benzoxazol-6-yl)-4-oxo-chromen-8-yl]ethyl]amino]benzoic acid], the IC50 is 0.5 to 1 µM in experiment [1], less than 0.5 µM in experiment [2] and less than 0.05 µM in experiment [3].
The like results for `Cc1cc(C(C)Nc2ccc(Cl)nc2C(=O)O)c2oc(-c3ccc4cc[nH]c4n3)cc(=O)c2c1` (single isomer, unassigned) [Example 216, 6-Chloro-3-[1-[6-methyl-4-oxo-2-(1H-pyrrolo[2,3-b]pyridin-6-yl)chromen-8-yl]ethylamino]pyridine-2-carboxylic acid] were, in that order, greater than 10 µM, 1 to 5 µM and greater than 0.5 µM.
The like results for `Cc1cc([C@@H](C)Nc2ccc(C)nc2C(=O)O)c2oc(-c3ccc4nc(C)cn4c3)cc(=O)c2c1` [Example 225, 6-Methyl-3-[[(1R)-1-[6-methyl-2-(2-methylimidazo[1,2-a]pyridin-6-yl)-4-oxo-chromen-8-yl]ethyl]amino]pyridine-2-carboxylic acid] were, in that order, 1 to 5 µM, less than 0.5 µM and 0.1 to 0.5 µM.
The like results for `Cc1cc(C(C)Nc2ccccc2C(=O)O)c2oc(-c3cc(C)c4nn(C)cc4c3)cc(=O)c2c1` (single isomer, unassigned) [Example 144, 2-[1-[2-(2,7-Dimethylindazol-5-yl)-6-methyl-4-oxo-chromen-8-yl]ethylamino]benzoic acid] were, in that order, 1 to 5 µM, less than 0.5 µM and less than 0.05 µM.
Turning to `Cc1cc(-c2cc(=O)c3cc(C(F)(F)F)cc(C(C)Nc4ccc(Cl)nc4C(=O)O)c3o2)cc2cn(C)nc12` (single isomer, unassigned) [Example 192, 6-Chloro-3-[1-[2-(2,7-dimethylindazol-5-yl)-4-oxo-6-(trifluoromethyl)chromen-8-yl]ethylamino]pyridine-2-carboxylic acid], the results for the concentration for half-maximal inhibition (IC50) in experiment [1], in experiment [2] and in experiment [3] were 0.5 to 1 µM, 0.5 to 1 µM and greater than 0.5 µM, respectively.
With `Cc1cc([C@@H](C)Nc2cccc(F)c2C(=O)O)c2oc(-c3ccc4c(cnn4C)c3)cc(=O)c2c1` [Example 197, 2-Fluoro-6-[[(1R)-1-[6-methyl-2-(1-methylindazol-5-yl)-4-oxo-chromen-8-yl]ethyl]amino]benzoic acid], the concentration for half-maximal inhibition (IC50) in experiment [1] was 0.5 to 1 µM; in experiment [2] it was less than 0.5 µM; in experiment [3], less than 0.05 µM.
For the compound `Cc1cc([C@@H](C)Nc2ccc(C)nc2C(=O)O)c2oc(-c3ccc4nc(C)sc4n3)cc(=O)c2c1` [Example 250, 6-Methyl-3-[[(1R)-1-[6-methyl-2-(2-methylthiazolo[5,4-b]pyridin-5-yl)-4-oxo-chromen-8-yl]ethyl]amino]pyridine-2-carboxylic acid], the IC50 is 5 to 10 µM in experiment [1], 1 to 5 µM in experiment [2] and 0.1 to 0.5 µM in experiment [3].
For `Cc1cc(C(C)Nc2ccccc2C(=O)O)c2oc(-c3cc4cn(C)nc4cn3)cc(=O)c2c1` (single isomer, unassigned) [Example 160, 2-[1-[6-Methyl-2-(2-methylpyrazolo[3,4-c]pyridin-5-yl)-4-oxo-chromen-8-yl]ethylamino]benzoic acid], in that order: 1 to 5 µM, less than 0.5 µM and 0.05 to 0.1 µM.
For `Cc1cc([C@@H](C)Nc2ccc(Br)nc2C(=O)O)c2oc(-c3ccc4nc(C)sc4n3)c(C)c(=O)c2c1` [Example 245, 6-Bromo-3-[[(1R)-1-[3,6-dimethyl-2-(2-methylthiazolo[5,4-b]pyridin-5-yl)-4-oxo-chromen-8-yl]ethyl]amino]pyridine-2-carboxylic acid], in that order: less than 0.5 µM, less than 0.5 µM and less than 0.05 µM.
As for `Cc1cc(C(C)Nc2ccccc2C(=O)O)c2oc(-c3cnn4cccnc34)cc(=O)c2c1` (single isomer, unassigned) [Example 33, 2-[1-(6-Methyl-4-oxo-2-pyrazolo[1,5-a]pyrimidin-3-yl-chromen-8-yl)ethylamino]benzoic acid], the figures for the IC50 in experiment [1], in experiment [2] and in experiment [3] were greater than 10 µM, greater than 10 µM and greater than 0.5 µM, respectively.
As to `Cc1cc([C@@H](C)Nc2ccc(C)nc2C(=O)O)c2oc(-c3ccc4nc(C)sc4n3)c(C)c(=O)c2c1` [Example 265, 3-[[(1R)-1-[3,6-Dimethyl-2-(2-methylthiazolo[5,4-b]pyridin-5-yl)-4-oxo-chromen-8-yl]ethyl]amino]-6-methyl-pyridine-2-carboxylic acid], the IC50 was 1 to 5 µM in experiment [1], less than 0.5 µM in experiment [2] and 0.05 to 0.1 µM in experiment [3].
For `Cc1cc([C@@H](C)Nc2cccnc2C(=O)O)c2oc(-c3nn(C)c4ccccc34)c(C)c(=O)c2c1` [Example 205, 3-[[(1R)-1-[3,6-Dimethyl-2-(1-methylindazol-3-yl)-4-oxo-chromen-8-yl]ethyl]amino]pyridine-2-carboxylic acid], in that order: greater than 10 µM, 1 to 5 µM and 0.05 to 0.1 µM.
Take `Cc1cc([C@@H](C)Nc2cccc(F)c2C(=O)O)c2oc(-c3ccc4cc[nH]c4n3)cc(=O)c2c1` [Example 241, 2-Fluoro-6-[[(1R)-1-[6-methyl-4-oxo-2-(1H-pyrrolo[2,3-b]pyridin-6-yl)chromen-8-yl]ethyl]amino]benzoic acid]: the IC50 in experiment [1] was 0.5 to 1 µM; in experiment [2] it was less than 0.5 µM; in experiment [3] it was 0.05 to 0.1 µM.
For `Cc1cc(C(C)Nc2ccccc2C(=O)O)c2oc(-c3cnn4cccnc34)cc(=O)c2c1` (single isomer, unassigned) [Example 34, 2-[1-(6-Methyl-4-oxo-2-pyrazolo[1,5-a]pyrimidin-3-yl-chromen-8-yl)ethylamino]benzoic acid], in that order: 1 to 5 µM, less than 0.5 µM and 0.05 to 0.1 µM.
The like results for `Cc1cc(C(C)Nc2ccccc2C(=O)O)c2oc(-c3ccc4[nH]ncc4c3)c(C)c(=O)c2c1` (single isomer, unassigned) [Example 132, 2-[1-[2-(1H-Indazol-5-yl)-3,6-dimethyl-4-oxo-chromen-8-yl]ethylamino]benzoic acid] were, in that order, 0.5 to 1 µM, less than 0.5 µM and less than 0.05 µM.
With `Cc1cn2cc(-c3cc(=O)c4cc(F)cc(C(C)Nc5ccccc5C(=O)O)c4o3)ccc2n1` (single isomer, unassigned) [Example 51, 2-[1-[6-Fluoro-2-(2-methylimidazo[1,2-a]pyridin-6-yl)-4-oxo-chromen-8-yl]ethylamino]benzoic acid], the IC50 was 1 to 5 µM in experiment [1], less than 0.5 µM in experiment [2] and less than 0.05 µM in experiment [3].
On to `Cc1cc(C(C)Nc2ccccc2C(=O)O)c2oc(-c3ccn4nccc4c3)cc(=O)c2c1` (single isomer, unassigned) [Example 113, 2-[1-(6-Methyl-4-oxo-2-pyrazolo[1,5-a]pyridin-5-yl-chromen-8-yl)ethylamino]benzoic acid], for which the figures for the IC50 in experiment [1], in experiment [2] and in experiment [3] were 0.5 to 1 µM, less than 0.5 µM and less than 0.05 µM, respectively.
